We go through 90 molecules from a melting point compilation (Tetko et al.; mined from patent text by program, amines drawn as free bases though some values may be those of a salt).

SMILES strings stand for the structures.

For orientation: melting point means the temperature, or range, at which the solid turns liquid. `CC(C)Cn1c(=O)n(C)c(=O)c2c(CCC(=O)O)c(Cc3ccccc3C(F)(F)F)sc21`: the melting point was in the range of 165 to 167 °C. Regarding `O=C(NCc1cccs1)c1ccccc1C(c1ccc(O)cc1)c1ccc(O)cc1`, the melting point was in the range of 109 to 111 °C. On to `COCC(=O)NNC1=Nc2sc(Cl)cc2C(c2ccccc2[N+](=O)[O-])=NC1`, for which the melting point fell in the range of 198 to 200 °C. Under `CCc1ccc(C)c(S(=O)(=O)NC(=O)n2nc(C)n(C)c2=O)c1` stands 145 °C. As for `O=c1c(-c2ccccc2)ccc2n1CCc1sccc1-2`, the figure is 187 to 189 °C.

In turn, `CCCCCn1c2ccc(C(=O)NN3CCCCC3)cc2c2ccc(OC)cc21` showed a melting point of 178 to 179 °C. As to `CCC(=O)N1CCC(NC(=O)NC2CCCCC2)CC1`, the melting point fell in the range of 177 to 179 °C.

In the case of `CC(C)(C)Oc1ccc2c(c1)Oc1ccccc1S2(=O)=O`, the melting point lay in the range of 108 to 110 °C. `CCOC(=O)C(=O)Nc1nc2c(s1)C(=O)c1ccccc1-2` yielded a melting point of 237 to 238 °C. The molecule `CCOc1cc2c(cc1S(=O)(=O)c1ccccc1)[C@@H](N1CCCC1=O)[C@H](O)C(C)(C)O2` (relative stereo) registered a melting point of 197 to 198 °C. `Nc1cc(SCc2ccccc2)ccc1[N+](=O)[O-]` yielded a melting point of 113 to 115 °C. As for `Cn1c(S)nnc1C(O)(c1ccc(Cl)cc1)c1cc2c3c(c1)c(-c1cccc(Cl)c1)cc(=O)n3CO2` (stereo not given), the melting point came to 193 °C. For `O=c1oc(Nc2ccccc2I)nc2ccccc12`, the melting point is 140 to 143 °C. Molecule `Cc1ccc(S(=O)(=O)n2c(Br)cc(-c3ccc(F)cc3)c2-c2ccc(S(C)(=O)=O)cc2)cc1` yielded a melting point of 207 to 208 °C. Take `CCn1cc(C(=O)O)c(=O)c2cc(F)c(N3CCCC(CN)C3)nc21` (stereo not given): the melting point was in the range of 120 to 122 °C. The molecule `O=C(Cn1ccnc1)c1ccc(CCc2ccccc2)cc1` came in with a melting point of 134 to 136 °C. As for `CCOC(=O)c1c(-c2ccccc2Cl)c2cc(Cl)ccc2[nH]c1=O`, the melting point was 223 to 224 °C. Under `COc1cc(OC)cc(N2CCN(C(=S)Nc3cc(C)c(C)cc3OC)CC2)c1` stands 128 to 129 °C.

`CCN(CC)CCNC(=O)COc1cccc(-n2nc(-c3ccc(F)cc3)c3cccnc32)c1` came in with a melting point of 137 to 138 °C.

The molecule `CC(C)N(C(=O)CN1C(=O)C(Cc2n[nH]c3ccccc23)C(=O)N(c2ccccc2)c2ccccc21)c1ccc(C(F)(F)F)cc1` (stereo not given) returned a melting point of 145 to 148 °C. In turn, `N#Cc1cn(C2CC2)c2c(F)c(F)c(F)cc2c1=O` showed a melting point of 213 to 215 °C. As to `O=c1[nH]c2cc3ccccc3cc2nc1-c1cc(O)c(O)c([N+](=O)[O-])c1`, the melting point is greater than 300 °C. Molecule `O=C(O)/C=C/c1cnc(-c2ccc(O)c(C34CC5CC(CC(C5)C3)C4)c2)cn1` had a melting point of 70 to 71 °C.

Molecule `Cc1nc(O)c(C)c(NCCc2ccncc2)n1` showed a melting point of 250 to 252 °C. Molecule `CC(=O)c1ccc(Oc2ccc(Cl)c3ccccc23)cc1` registered a melting point of 95 to 99 °C. As for `O=C(O)CCc1oc(N2CCOCC2)nc1-c1ccc(Cl)cc1`, the figure is 180 to 181 °C; as for `N#Cc1cc(N(CC(=O)O)C(=O)c2cccn2-c2ccc(F)cc2)ccc1N1CCCCC1`, 117 to 120 °C. The molecule `O=C(O)c1ccc(CNC(=O)[C@@H]2Cc3ccccc3N2S(=O)(=O)c2ccc(I)cc2)cc1` returned a melting point of 110 to 120 °C. For `O=S(=O)(COc1ncc(Cl)cn1)c1ncc(Cl)cn1`, the melting point was 135 °C. With `Cc1cccc2c1NC(C)c1nnnn1-2` (stereo not given), the melting point fell in the range of 159 to 161 °C. The molecule `C=CCOc1cc(C(=O)OCC)nc2c(CCC)c3oc(C(=O)OCC)cc(=O)c3cc12` gave a melting point of 151 to 153 °C. `CCn1c2cc(C=O)ccc2c2ccc3ccccc3c21`: the melting point is 138 to 139 °C. Regarding `CCCOC(=O)Nc1cccc(NC(=O)C=C(C)OC)c1`, the melting point is 115 °C. As for `COc1ccc2c(C)c(C)oc2c1C=O`, the figure is 88 °C; as for `COc1ccc(C(=O)NC(=O)NC2CN3CCC2CC3)cc1` (stereo not given), 166 to 168 °C. `CCCOc1ccc(-c2c(C(=O)OC)c(C(=O)OC)c(O)c3cc(OC)c(OC)c(OC)c23)cc1OCCC` showed a melting point of 132 °C. With `O=C(Nc1cccc2c1C(=O)N(CC(=O)N1CCN(c3ccncc3)CC1)C2=O)c1ccc(Cl)s1`, the melting point amounted to 207 °C.

As to `Cc1nc2ccccn2c1-c1csc(Nc2ccc(C(=O)Nc3ccccc3N)cc2)n1`, the melting point lay within 161 to 165 °C. Under `COc1ccc(OC)c(NC(=O)Cc2ccccc2)c1` stands 85 °C; under `COC(=O)c1cc(N)c(F)c(Cl)n1`, 180 to 183 °C; under `OCC1OC(n2cnc3c(SCc4ccccc4)cc(Cl)nc32)C(O)C1O` (stereo not given), 154 to 156 °C. Take `Cc1ccc2c(c1)S(=O)(=O)NCN2CCF`: the melting point is 88 to 90 °C. Consider `CC(C)(C)ON=C1CC(c2ccc(S(C)(=O)=O)cc2)=C1c1ccccc1`, for which the melting point was 150 to 152 °C. `C#Cc1ccc(C(=O)NC(C#N)OCC)cc1` (stereo not given) came in with a melting point of 104 to 106 °C. As to `CCCCN(CCCC)C(=O)/C=C/c1ccc(Cn2c(-c3ccc(O)cc3)c(C)c3cc(O)ccc32)cc1`, the melting point lay within 126 to 128 °C. On to `CN(c1cccc2cc(-c3nccs3)[nH]c12)S(=O)(=O)c1cccnc1Cl`, for which the melting point is 203 °C. On to `C=CC(=O)N[C@H](C)C(=O)OC1(C)CCC(C(C)C)CC1` (stereo not given in full), for which the melting point amounted to 79 °C. On to `CCOC(=O)Nc1ccc2c(c1)CCSCC2=O`, for which the melting point was in the range of 145 to 146 °C. With `O=C(NCCc1ccccn1)c1ccccc1-c1ccccc1CNS(=O)(=O)c1cccc(F)c1`, the melting point amounted to 123 °C. In the case of `Cc1cccc(CCOc2nc(N)c3ncn(C4OC(CO)C(O)C4O)c3n2)c1` (stereo not given), the melting point fell in the range of 102 to 108 °C.

The molecule `CCOCCC(Cc1ccc(NC(=O)NC(=O)c2ccc(C#N)cc2)cc1)C(=O)OC(C)(C)C` (stereo not given) yielded a melting point of 144 to 145 °C. `O=c1n(-c2ccc(N3CCNCC3)cc2)cnn1CC(F)(F)C(F)F` displayed a melting point of 155 to 157 °C. On to `CCCCc1nnc2ccccc2c1Cl`, for which the melting point worked out at 50 °C.

`COC(=O)NC1CCc2sc(Cl)cc2C1` (stereo not given): the melting point was in the range of 120 to 121 °C. Consider `Nc1cnc2cccnc2c1O`, for which the melting point is 315 to 320 °C. In turn, `Cc1csc(-c2ccc3nnn(Cc4ccc5ncccc5c4)c3n2)c1` showed a melting point of 153 to 156 °C. As for `C=CCN1CCN(C(=O)OC2C3=C(OCCS3)C(=O)N2c2ccc3ccc(Cl)nc3n2)CC1` (stereo not given), the melting point worked out at 254 °C.

For the molecule `COC(=O)C1(C(F)(F)CCCCOc2ccc(Cl)cc2)CO1` (stereo not given), the melting point was 40 to 48 °C. `CCCCCCCC(=O)c1ccc(CCC(C)(COC(C)=O)NC(C)=O)cc1` (stereo not given) gave a melting point of 88 to 89 °C. Take `COc1cc(C(F)(F)F)c2[nH]c3c(c2c1)CNCC3`: the melting point was 140 to 144 °C. Turning to `COc1ccc(-c2ccncc2)c(C)n1`, the melting point was 85 to 90 °C.

`CN1CNC(=O)NC1=O` yielded a melting point of 252 to 254 °C. The molecule `COC(=O)Cc1noc2cc(F)ccc12` displayed a melting point of 60 to 61 °C.

Molecule `CC1Oc2ccc(CN3CCN(c4ccc(Cl)cn4)CC3)cc2NC1=O` (stereo not given) had a melting point of 197 to 198 °C.

In the case of `COC(=O)c1ccc(S(C)(=O)=O)c(-c2cc(C(C)C)no2)c1`, the melting point is 102 to 104 °C. In turn, `COc1cc(OC)c(-c2nc3cccnc3[nH]2)cc1C=CC(=O)c1ccc(C(=O)O)cc1` returned a melting point of 222 to 224 °C. On to `CC(C)COC[C@H](CC(C)C)NC(=O)[C@H]1O[C@@H]1C(=O)OC(C)(C)C`, for which the melting point was in the range of 73.5 to 74.5 °C. `CNC(=O)C1SCSC(=NO)S1` (stereo not given) yielded a melting point of 129 to 130 °C. `CCN1C(=O)C(=O)N(c2ccc(Cl)cc2C)C1=S` returned a melting point of 161 to 162 °C. In turn, `FC(F)(F)c1ccc(Oc2ccc3c(c2)OCC(c2ccccc2)O3)nc1` (stereo not given) showed a melting point of 104 to 110 °C. As for `CCOC(=O)N1CCC2(CC1)OC(c1ccccc1)c1ccccc12` (stereo not given), the figure is 115 to 119 °C.

The molecule `COC(=O)[C@H](c1ccccc1Cl)N1CCc2sc(OC(=O)c3cccnc3)cc2C1` yielded a melting point of 92 to 94 °C. The molecule `CSc1ccc2[nH]c(C(=O)O)cc(=O)c2c1` had a melting point of 256 to 257 °C. The molecule `O=C(NNC(=O)C(F)(F)F)C(F)(F)F` had a melting point of 173 to 175 °C.

Take `CC(C)COc1ccc(COc2ccc(CC(=O)O)cc2Cl)cc1Cl`: the melting point lay in the range of 128 to 129 °C.

Molecule `CN=C(SC)N(C)Cc1cccnc1Cl` gave a melting point of 106 to 113 °C. `O=C(O)c1cc(F)c(F)cc1NC1CC1` yielded a melting point of 175 to 176 °C. Under `CCOC(=O)Cc1c(C(=O)OCC)c(C)cn1CCO` stands 133 to 135 °C; under `COc1cc(C(=N)N)ccc1OCc1ccc(CN2C(=O)c3ccccc3C2=O)cc1`, 228 to 230 °C; under `COc1ccc(I)c(CC(=O)O)c1`, 134 °C. `Cc1cccc(C(=O)NO)c1N(C)S(=O)(=O)c1ccc(OCCCCNC(=O)c2ccc3c(c2)OCO3)cc1` displayed a melting point of 117 to 121 °C.

With `Oc1ccc2c(-c3nc4cc(O)ccc4o3)cccc2c1`, the melting point lay in the range of 232 to 234 °C. Regarding `Cc1ccc(OC2CCN(C(=O)C(=O)Nc3ccc4nc(S)[nH]c4c3)CC2)cc1`, the melting point lay in the range of 311 to 314 °C. For `CN(C)C(=O)c1c(-c2ccc3ccccc3c2)ccc2ccccc12`, the melting point was in the range of 168 to 169 °C. Turning to `CCCNC(=O)c1ccc2c(c1)N(C(C)COS(C)(=O)=O)c1ccccc1S2` (racemic), the melting point is 138 °C. Under `CCOC(=O)c1ccc(-c2ccsc2)nc1C(=O)OCC` stands 100 to 102 °C; under `CSc1nn2c(N(C)C)cc(C)nc2c1S(=O)(=O)c1ccc(C)cc1`, greater than 230 °C; under `Cc1oc(-c2ccccc2)nc1COc1nn(Cc2ccc(Oc3ccccc3)cc2)cc1C=O`, 129 to 130 °C. Consider `CCOc1cc(-c2cc(C(F)(F)F)n3ncc(-c4cc(C)nc(C)c4)c3n2)ccc1C(F)(F)F`, for which the melting point is 257 °C. Molecule `O=C(Nc1cccc2c1C1CCCCN1C2=O)Nc1nc(Cl)c(Cl)c(Cl)c1Cl` (stereo not given) had a melting point of 246 °C.
